The values that follow come from patent US20240158446A1, “CYCLIC COMPOUND HAVING SELECTIVE INHIBITORY ACTION ON KRAS OVER HRAS AND NRAS” (CHUGAI SEIYAKU KABUSHIKI KAISHA, priority 2021, published 2024).

For orientation: Kd means the equilibrium constant for the complex coming apart.

Test [1] deals with GDP-bound KRAS wild-type protein (Homo sapiens, UniProt P01116). As to the kind of experiment: Binding to KRAS by surface plasmon resonance (SPR), Single Cycle Kinetics. Particulars: SPR, Single Cycle Kinetics, GDP-bound KRAS wild-type protein; read-out: KRAS KD.
GDP-bound KRAS wild-type protein, sequence (P01116 whole entry): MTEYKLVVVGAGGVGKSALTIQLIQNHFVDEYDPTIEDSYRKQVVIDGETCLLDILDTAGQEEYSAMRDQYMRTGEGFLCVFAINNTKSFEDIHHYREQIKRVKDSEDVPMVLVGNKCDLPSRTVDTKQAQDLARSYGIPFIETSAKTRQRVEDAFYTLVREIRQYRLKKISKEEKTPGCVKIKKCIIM
For test [2], the target named is GDP-bound NRAS wild-type protein (Homo sapiens, UniProt P01111). As to the kind of experiment: Binding to NRAS by surface plasmon resonance (SPR), Single Cycle Kinetics. Particulars: ratio of KD for GDP-bound NRAS wild-type protein to KD for KRAS, SPR.
GDP-bound NRAS wild-type protein, sequence (P01111 whole entry): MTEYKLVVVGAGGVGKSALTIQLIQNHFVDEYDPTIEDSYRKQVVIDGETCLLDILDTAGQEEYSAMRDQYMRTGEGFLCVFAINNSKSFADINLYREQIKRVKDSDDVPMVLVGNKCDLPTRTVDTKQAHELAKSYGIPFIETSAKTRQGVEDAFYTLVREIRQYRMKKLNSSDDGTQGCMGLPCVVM
The target of test [3] is GDP-bound HRAS wild-type protein (Homo sapiens, UniProt P01112). Description: Binding to HRAS by surface plasmon resonance (SPR), Single Cycle Kinetics. Particulars: ratio of KD for GDP-bound HRAS wild-type protein to KD for KRAS, SPR. For orientation: SPR reads the build-up and loss of mass on a sensor chip optically.
GDP-bound HRAS wild-type protein, sequence (P01112 whole entry): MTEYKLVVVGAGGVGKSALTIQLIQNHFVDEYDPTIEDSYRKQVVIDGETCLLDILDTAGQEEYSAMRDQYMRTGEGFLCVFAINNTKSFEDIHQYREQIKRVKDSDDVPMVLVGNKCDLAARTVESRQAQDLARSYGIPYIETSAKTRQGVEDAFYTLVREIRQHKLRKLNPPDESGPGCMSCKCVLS
Test [4] concerns human lung cancer strain NCI-H441. Description: cells. Particulars: NCI-H441, 96 h, read-out: NCI-H441 IC50 (nM), NCI-H441 cell proliferation, 4 days, CellTiter-Glo. For orientation: In ATP-based viability assays light output follows the ATP content of the culture.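 Also: cell proliferation inhibition after four days measured by CellTiter-Glo.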

With `CCCOC[C@H]1C(=O)N[C@@H]([C@@H](C)CC)C(=O)N(C)CC(=O)N(C)[C@H]2C/C=C\CCN(C2=O)[C@@H](Cc2ccc(C(F)(F)F)cc2)C(=O)N(C)CC(=O)N[C@@H](CCc2cc(F)c(C(F)(F)F)c(F)c2)C(=O)N2C[C@H](OCC)C[C@H]2C(=O)NC2(CC(F)(F)C2)C(=O)N(C)[C@@H](C2CCCC2)C(=O)N(C)[C@H](C(=O)N(C)CCC)CC(=O)N1C` [PP1744], the Kd in test [1] came to 0.13 nM. Further, the “NRAS/KRAS (KD ratio)” value in test [2] was “A (a compound having 10 or more and less than 20 is denoted as A)”. The “HRAS/KRAS (KD ratio)” value in test [3] is “A (a compound having 10 or more and less than 20 is denoted as A)”. For the same compound, the IC50 in test [4] turned out to be 5.3 nM.

With `CCO[C@@H]1C[C@H]2C(=O)N(C)C3(CCC3)C(=O)N(C)[C@@H](C3CCCC3)C(=O)N(C)[C@H](C(=O)N(C)C)CC(=O)N(C)[C@@H](C3CC3)C(=O)N[C@@H]([C@@H](C)CC)C(=O)N(C)CC(=O)N(C)[C@H]3C/C=C\CCN(C3=O)[C@@H](Cc3ccc(C)cc3)C(=O)N(C)CC(=O)N[C@@H](CCc3cc(F)c(C(F)(F)F)c(F)c3)C(=O)N2C1` [PP1783], the Kd in test [1] is 0.028 nM. For the same compound, in test [2], the “NRAS/KRAS (KD ratio)” value was “A (a compound having 10 or more and less than 20 is denoted as A)”. Besides, in test [3], the “HRAS/KRAS (KD ratio)” value is “B (a compound having 3 or more and less than 10 is denoted as B)”. In addition, in test [4], the IC50 turned out to be 3.5 nM.

In the case of `CCO[C@@H]1C[C@H]2C(=O)NC3(CC(F)(F)C3)C(=O)N(C)[C@@H](C3CCCC3)C(=O)N3CCC[C@@H]3CC(=O)N(C)[C@@H](CC3CC3)C(=O)N[C@@H]([C@@H](C)CC)C(=O)N(C)CC(=O)N(C)[C@H]3C/C=C\CCN(C3=O)[C@@H](Cc3ccc(C(F)(F)F)cc3)C(=O)N(C)CC(=O)N[C@@H](CCc3cc(F)c(C(F)(F)F)c(F)c3)C(=O)N2C1` [PP1615], the dissociation constant (Kd) in test [1] stood at 0.45 nM. Also, in test [2], the “NRAS/KRAS (KD ratio)” value is “B (a compound having 3 or more and less than 10 is denoted as B)”. Besides, the “HRAS/KRAS (KD ratio)” value in test [3] is “B (a compound having 3 or more and less than 10 is denoted as B)”. Also, the IC50 in test [4] was 20.9 nM.

As to `CCC[C@H]1C(=O)N[C@@H]([C@@H](C)CC)C(=O)N(C)CC(=O)N(C)[C@H]2C/C=C\CCN(C2=O)[C@@H](Cc2ccc(C)cc2)C(=O)N(C)CC(=O)N[C@@H](CCc2ccc(C(F)(F)F)c(OC)c2)C(=O)N2C[C@H](OCC)C[C@H]2C(=O)NC2(CCC2)C(=O)N(C)[C@@H](C2CCCC2)C(=O)N(C)[C@H](C(=O)N(C)C)CC(=O)N1C` [PP1871], the Kd in test [1] was 0.099 nM. Further, the “NRAS/KRAS (KD ratio)” value in test [2] was “A (a compound having 10 or more and less than 20 is denoted as A)”. Besides, the “HRAS/KRAS (KD ratio)” value in test [3] is “A (a compound having 10 or more and less than 20 is denoted as A)”. Moreover, the IC50 in test [4] worked out at 13.1 nM.

For the compound `C#CC[C@H]1C(=O)N[C@@H]([C@@H](C)CC)C(=O)N(C)CC(=O)N(C)[C@H]2C/C=C\CCN(C2=O)[C@@H](Cc2ccc(C(F)(F)F)cc2)C(=O)N(C)CC(=O)N[C@@H](CCc2cc(F)c(C(F)(F)F)c(F)c2)C(=O)N2C[C@H](F)C[C@H]2C(=O)NC2(CC(C)(C)C2)C(=O)N(C)[C@@H](C2CCCC2)C(=O)N(C)[C@H](C(=O)N(C)CC)CC(=O)N1C` [PP1691], the dissociation constant (Kd) in test [1] was 0.06 nM. For the same compound, the “NRAS/KRAS (KD ratio)” value in test [2] was “A (a compound having 10 or more and less than 20 is denoted as A)”. Also, the “HRAS/KRAS (KD ratio)” value in test [3] was “A (a compound having 10 or more and less than 20 is denoted as A)”. For the same compound, the IC50 in test [4] turned out to be 3.1 nM.

`CCO[C@@H]1C[C@H]2C(=O)NC3(CCC3)C(=O)N(C)[C@@H](C3CCCC3)C(=O)N(C)[C@H](C(=O)N(C)CC)CC(=O)N(C)[C@@H](C3CC3)C(=O)N[C@@H]([C@@H](C)CC)C(=O)N(C)CC(=O)N(C)[C@H]3C/C=C\CCN(C3=O)[C@@H](Cc3ccc(C(F)(F)F)cc3)C(=O)N(C)CC(=O)N[C@@H](CCc3ccc(C(F)(F)F)c(OC)c3)C(=O)N2C1` [PP2021]: in test [1], the dissociation constant Kd was found to be 0.12 nM. In addition, the “NRAS/KRAS (KD ratio)” value in test [2] was “A (a compound having 10 or more and less than 20 is denoted as A)”. Besides, the “HRAS/KRAS (KD ratio)” value in test [3] was “B (a compound having 3 or more and less than 10 is denoted as B)”. In test [4], the IC50 was 4.9 nM.

`CCO[C@@H]1C[C@H]2C(=O)NC3(CC(C)(C)C3)C(=O)N(C)[C@@H](C3CCCC3)C(=O)N(C)[C@H](C(=O)N(C)CC)CC(=O)N(C)[C@@H](CC)C(=O)N[C@@H]([C@@H](C)CC)C(=O)N(C)CC(=O)N(C)[C@H]3C/C=C\CCN(C3=O)[C@@H](Cc3ccc(C)cc3)C(=O)N(C)CC(=O)N[C@@H](CCc3ccc(C(F)(F)F)c(Cl)c3)C(=O)N2C1` [PP1880]: the equilibrium dissociation constant (Kd) in test [1] amounted to 0.15 nM. Besides, the “NRAS/KRAS (KD ratio)” value in test [2] is “A (a compound having 10 or more and less than 20 is denoted as A)”. In addition, the “HRAS/KRAS (KD ratio)” value in test [3] was “B (a compound having 3 or more and less than 10 is denoted as B)”. Further, in test [4], the IC50 came out at 15.6 nM.

Take `CC[C@H](C)[C@@H]1NC(=O)[C@H](C2CC2)N(C)C(=O)C[C@@H](C(=O)N(C)C)N(C)C(=O)[C@H](C2CCCC2)N(C)C(=O)C2(CCCC2)N(C)C(=O)[C@@H]2C[C@@H](C)CN2C(=O)[C@H](CCc2cc(F)c(C(F)(F)F)c(F)c2)NC(=O)CN(C)C(=O)[C@H](Cc2ccc(C)cc2)N2CC/C=C\C[C@@H](C2=O)N(C)C(=O)CN(C)C1=O` [PP1813]: the equilibrium dissociation constant (Kd) in test [1] stood at 0.12 nM. The “NRAS/KRAS (KD ratio)” value in test [2] is “A (a compound having 10 or more and less than 20 is denoted as A)”. In addition, the “HRAS/KRAS (KD ratio)” value in test [3] is “B (a compound having 3 or more and less than 10 is denoted as B)”. Further, the IC50 in test [4] came out at 22.6 nM.

Turning to `CCOC[C@H]1C(=O)N[C@@H]([C@@H](C)CC)C(=O)N(C)CC(=O)N(C)[C@H]2C/C=C\CCN(C2=O)[C@@H](Cc2ccc(C(F)(F)F)cc2)C(=O)N(C)CC(=O)N[C@@H](CCc2ccc(C(F)(F)F)c(OC)c2)C(=O)N2C[C@H](OCC)C[C@H]2C(=O)NC2(CC(C)(C)C2)C(=O)N(C)[C@@H](C2CCCC2)C(=O)N(C)[C@H](C(=O)N(C)CC)CC(=O)N1C` [PP2014], in test [1], the equilibrium dissociation constant (Kd) was 0.093 nM. Besides, the “NRAS/KRAS (KD ratio)” value in test [2] was “A (a compound having 10 or more and less than 20 is denoted as A)”. Further, the “HRAS/KRAS (KD ratio)” value in test [3] was “A (a compound having 10 or more and less than 20 is denoted as A)”. Besides, in test [4], the IC50 is 6.9 nM.

`CCC[C@H]1C(=O)N[C@@H]([C@@H](C)CC)C(=O)N(C)CC(=O)N(C)[C@H]2C/C=C\CCN(C2=O)[C@@H](Cc2ccc(C(F)(F)F)cc2)C(=O)N(C)CC(=O)N[C@@H](CCc2cc(F)c(C(F)(F)F)c(F)c2)C(=O)N(CC)CC(=O)NC2(CC(C)(C)C2)C(=O)N(C)[C@@H](C2CCCC2)C(=O)N(C)[C@H](C(=O)N(C)C)CC(=O)N1C` [PP1777]: the dissociation constant Kd in test [1] was 0.36 nM. Besides, the “NRAS/KRAS (KD ratio)” value in test [2] is “A (a compound having 10 or more and less than 20 is denoted as A)”. Also, in test [3], the “HRAS/KRAS (KD ratio)” value was “B (a compound having 3 or more and less than 10 is denoted as B)”. Besides, the IC50 in test [4] was 79.3 nM.
